Literature values in patent publication US20230372421A1, “IMMATURE POMEGRANATE EXTRACT FORMULATIONS” (CONSIGLIO NAZIONALE DELLE RICERCHE, priority 2020, published 2023).

Test system: cells of neuronal origin
Details: Jin, Yu, Wang & Xu, 2016

O=C1O[C@H]2[C@H](OC(=O)c3cc(O)c(O)c(O)c3)O[C@@H]3COC(=O)c4cc(O)c(O)c(O)c4-c4c(cc(O)c(O)c4O)C(=O)O[C@H]2[C@@H]3OC(=O)c2cc(O)c(O)c3c2C2C1=CC(=O)C(O)(O)C2(O)O3 (stereo partly shown) [granatin B]
anticancer properties: important anticancer properties
